Common to all, as to assay: NCI tumour cell line growth inhibition, 48 h
Experiment [1] concerns SF-268 CNS.
Experiment [2] relates to SF-295 CNS.
Experiment [3] concerns UACC-62 melanoma.
Experiment [4] concerns HCT-15 colon.
Experiment [5] deals with CCRF-CEM leukemia.
Experiment [6] concerns MDA-MB-231 breast.
Experiment [7] relates to SW-620 colon.
The subject of experiment [8] is T-47D breast.
The subject of experiment [9] is SF-539 CNS.
For experiment [10], the system named is NCI-H23 lung.
For experiment [11], the system named is ACHN renal.
In experiment [12] the test system is A498 renal.
The test system of experiment [13] is OVCAR-4 ovarian.
Experiment [14] relates to OVCAR-3 ovarian.
For experiment [15], the system named is DU-145 prostate.
Experiment [16] concerns SK-MEL-2 melanoma.
The test system of experiment [17] is EKVX NSCLC.
The test system of experiment [18] is MALME-3M melanoma.
For experiment [19], the system named is MCF7 breast.
The subject of experiment [20] is U251 CNS.

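Following 48 hours of exposure in 96-well plates, responses at five concentrations were used to interpolate endpoints linearly. Definition used: TGI = concentration required for complete inhibition of growth.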

As to `NC(=O)c1ncn(C2OC(CO)C(O)C2O)c1NC=O` (stereo not given), the TGI in experiment [1], in [2], in [3], in experiment [4], in [5] and in [6] was more than 100 µM in each case. For the same molecule, the TGI in experiment [7], in [8], in experiment [9], in experiment [10], in experiment [11] and in [12] was more than 100 µM in each case. The TGI in [13], in [14], in experiment [15], in experiment [16], in [17] and in [18] was more than 100 µM each time. In addition, the TGI in [19] and in experiment [20] was more than 100 µM throughout.

In the case of `Cc1c2c(OCC(O)CN3CCN(c4ccccc4)CC3)nn(C)c(=O)c2c(C)n1-c1ccccc1` (stereo not given), the TGI in experiment [1] was 73.5 µM; in [2], 51.3 µM; in experiment [3] it was 32 µM; in [4] it was 43.5 µM; in [5], more than 100 µM; in experiment [6], 69.6 µM. The TGI in [7] was found to be 98.8 µM; in experiment [8] it was 71.8 µM; in [9], 33.6 µM; in [10] it was 46.4 µM; in [11], 49.6 µM; in experiment [12], 58.6 µM. For the same molecule, the TGI in experiment [13] was more than 100 µM; in [14] it was 45.5 µM; in [15], more than 100 µM; in experiment [16], 33.1 µM; in [17] it was more than 100 µM; in experiment [18] it was 40.7 µM. Also, the TGI in [19] was found to be 36.5 µM; in [20], 30.2 µM.

Consider `NC(=O)c1cccc(N=c2oc3ccc(Br)cc3cc2-c2nc3ccccc3[nH]2)c1`, for which the TGI was 43.6 µM in experiment [1]; 30.8 µM in [2]; 28.5 µM in [3]; 32.1 µM in experiment [4]; 17.3 µM in experiment [5]; 25 µM in experiment [6]. For the same molecule, the TGI in experiment [7] came to 47.7 µM; in experiment [8], 29.2 µM; in [9], 14.4 µM; in experiment [10], 32.7 µM; in experiment [11], 32.2 µM; in experiment [12], 35.8 µM. In addition, the TGI was 47.5 µM in experiment [13]; 32.1 µM in experiment [14]; 28.9 µM in [15]; 38.5 µM in [16]; 32.6 µM in experiment [17]; 43 µM in experiment [18]. For the same molecule, the TGI in experiment [19] was determined as 31.9 µM; in [20], 31 µM.

As to `O=C(O)c1cc2c(cc1CC(Cc1ccc3c(c1)CCCC3)C(=O)O)CCCC2` (stereo not given), the TGI in [1], in experiment [2], in experiment [3], in experiment [4], in experiment [5] and in experiment [6] was more than 100 µM throughout. Besides, the TGI in [7], in experiment [8], in experiment [9], in [10], in [11] and in experiment [12] was more than 100 µM in each case. The TGI in [13] is 0.758 µM; in experiment [14], more than 100 µM; in experiment [15], more than 100 µM; in experiment [16], more than 100 µM; in experiment [17] it was more than 100 µM; in experiment [18], more than 100 µM. The TGI in [19] and in experiment [20] was more than 100 µM throughout.

Consider `N#Cc1ccc(CSC2=C(c3ccc(Cl)cc3)S/C(=C3\SC(SCc4ccc(C#N)cc4)=C(c4ccc(Cl)cc4)S3)S2)cc1`, for which the TGI in experiment [1], in experiment [2], in experiment [3], in [4], in [5] and in [6] was more than 100 µM in each case. Further, the TGI in experiment [7], in experiment [8], in experiment [9], in experiment [10], in experiment [11] and in [12] was more than 100 µM each time. For the same molecule, the TGI in experiment [13], in experiment [14], in [15], in experiment [16], in [17] and in experiment [18] was more than 100 µM throughout. For the same molecule, the TGI in experiment [19] and in [20] was more than 100 µM in each case.

As to `CC(=NNC(=S)Nc1cccc(C)c1)c1cccc(C(C)=NNC(=S)Nc2cccc(C)c2)n1`, the TGI in experiment [1] is more than 100 µM; in experiment [2] it was 34 µM; in [3], more than 100 µM; in [4] it was more than 100 µM; in [5], more than 100 µM; in [6], 59.9 µM. Further, the TGI in experiment [7] is 70.5 µM; in experiment [8] it was more than 100 µM; in experiment [9], 46.1 µM; in [10], more than 100 µM; in experiment [11], 46.4 µM; in [12] it was 61.6 µM. Also, the TGI in experiment [13] was 38.5 µM; in experiment [14], 26.8 µM; in experiment [15], more than 100 µM; in [16], 74 µM; in experiment [17], more than 100 µM; in experiment [18], 49.2 µM. The values for the TGI in experiment [19] and in experiment [20] were 77.7 µM and 93.3 µM, respectively.

Source of the values: PubChem BioAssay (NCI).
